Consider 1 substance from patent US20100008965A1, “BIOCOMPATIBLE MEDICAL PRODUCTS HAVING ENHANCED ANTI-THROMBOGENIC PROPERTIES” (priority 2008, published 2010).

For assay [1], the system named is human platelets. In words: DiOC6-labeled platelet adhesion imaging under shear flow. The assay is classed as cell-based. The note with it: 16.5 dyne/cm^2, one hour, platelets activated prior to flow. How it is done:
To visualize shear stress-mediated platelet adhesion to the immobilized ECM proteins, non-radiolabeled non-activated or thrombin-activated human platelets were prepared as described above, but were first incubated for ten minutes at room temperature with a 10 μM DiOC6 (dihexaoxacarbocyanine iodide) (Sigma) solution prior to being subjected to flow for one hour at a shear stress τ=16.5 dyne/cm^2. Post-flow, all slides were rinsed twice with PBS and fixed with 4% (w/v) paraformaldehyde. Platelet adhesion was visualized on a Nikon Diaphot 200 inverted epifluorescence microscope (Nikon) at 488 nm using a 40× objective. Images were captured using an Olympus DP70 digital camera (Olympus America, Inc.) and analyzed using the Adobe® Photoshop® software package version 6.0 (Adobe Systems Incorporated, San Jose, Calif.).

The subject of assay [2] is human platelets. In words: 51Cr-labeled platelet adhesion to immobilized ECM proteins under shear flow. The assay is classed as cell-based. Conditions: 16.5 dyne/cm^2, one hour; non-activated and thrombin-activated; versus CS-1 and glass control. As to the method: Characterization of human platelet adhesion to immobilized extracellular matrix proteins was performed by subjecting non-activated or thrombin-activated human platelets to a shear stress τ=16.5 dyne/cm^2 for one hour using a peristaltic pump-driven parallel plate fluid flow system. Washed human platelets were isolated as described above, resuspended in platelet washing buffer (PWB), and adjusted to a final concentration of approximately 0.5-1.0×10^9 platelets/ml. The platelet suspensions were incubated for thirty minutes at room temperature with 25 μCi/ml Na2^51CrO4 (GE Healthcare, Piscataway, N.J.). ^51Cr-labeled platelets were centrifuged at 2000×g for three minutes at room temperature and resuspended in 20 ml fresh frozen plasma previously thawed and warmed to 37° C. The ^51Cr-platelet/plasma solution was distributed equally (5 ml) into each of four reservoirs containing an additional 50 ml of 37° C. human plasma. For thrombin-activated platelets, 1 U thrombin (Sigma) per 3 ml platelet suspension was added immediately prior to aliquoting the ^51Cr-platelet/plasma solution into the flow loop reservoirs.
75×38×1 mm glass microscope slides were coated with ECM proteins as described above. Slides were incubated for one hour at room temperature with a 0.25% (w/v) sterile-filtered BSA solution. […]

Assay [3] relates to HCAEC. In words: HCAEC retention under unidirectional fluid flow. The format is cell-based, human. The note with it: 15 dyne/cm^2, thirty minutes. How it is done: In addition to the above, 75×38×1 mm glass microscope slides (Fisher Scientific Research, Pittsburgh, Pa.) were sterilized and coated overnight with human plasma fibronectin or CS-1 peptide at 5 μg/cm^2, or with PBS only. Slides were incubated for one hour at room temperature with a 0.01% (w/v) sterile-filtered BSA solution. HCAEC or HUVEC were seeded in basal medium on slides at 1.85×10^4 cells/cm^2 and permitted to adhere for eight hours under static conditions at 37° C. Fluid flow was performed using parallel plate flow chambers connected to fluid flow loops, as described in Pavalko et al., Fluid shear stress inhibits TNF-alpha-induced apoptosis in osteoblasts: a role for fluid shear stress-induced activation of PI3-kinase and inhibition of caspase-3. J Cell Phys 194, 194, 2002. Briefly, endothelial cell-seeded slides were secured within flow chambers and connected to fluid flow loops. All flows were performed in a 37° C. environment with serum-free culture medium that was continually bathed in a 5% CO2 atmosphere. […] Fluorescence micrographs were captured as described above. […] Nuclei were counted from five equally distributed visual fields per slide and pooled together for each substrate condition. Data was calculated as percent (%) cell retention, where % retention=[(average nuclei count)flow÷(average nuclei count)static]×100.

In assay [4] the test system is HCAEC. In words: alpha-4 integrin function blocking cell binding assay, HCAEC. The format is cell-based, human. The note with it: 0.5 μg antibody per 5×10^4 cells, 8 h; CS-1 p<0.05. As to the method:
To verify that HCAEC or HUVEC adhesion to immobilized CS-1 polypeptides is specifically mediated via alpha-4-containing integrin heterodimers, alpha-4 integrin function blocking cell binding assays were performed. RGDS, EILEVPST, and CS-1 polypeptides were immobilized in Immobilizer™ Amino 96-well microplates. Microplate wells were prepared as described above. Trypsinized HCAEC or HUVEC suspensions were manually counted, aliquoted into two groups, and incubated for one hour on ice with one of the following antibodies at a concentration of 0.5 μg antibody per 5×10^4 cells: (a) mouse monoclonal IgG1 anti-human alpha-4-integrin (CD49d, clone P1H4) (Chemicon), or (b) mouse monoclonal IgG1 anti-human isotype-matched control (R&D Systems). Next, 5×10^4 cells suspended in their respective basal medium were added to wells containing immobilized peptide polypeptides and incubated for eight hours at 37° C. and a 5% CO2 atmosphere. Adherent cells were analyzed via crystal violet staining as described previously.
To differentiate whether HCAEC and HUVEC adhere to CS-1 peptides via an alpha-4 integrin-specific interaction, HCAEC and HUVEC adhesion assays to CS-1, RGDS, and EILEVPST peptides were performed following one hour endothelial cell incubations with either an alpha-4 integrin function blocking antibody or an IgG isotype-matched control antibody. The EILEVPST peptide served as the negative control cell adhesion peptide. The RGDS peptide served as an additional control. Endothelial cell adhesion to RGDS is primarily mediated by alpha-5-beta-1 integrins. Therefore, alpha-4 integrin function blocking should not have a significant effect on adhesion to RGDS. Thus, specificity of HCAEC and HUVEC binding to CS-1 via alpha-4 integrins could be tested.

With “CS-1: full-length 25 amino acid polypeptide, first 25 amino acid sequence of the fibronectin type IIICS domain (DELPQLVTLPHPNLHGPEILDVPST; Homo sapien)”, the “thrombin-activated platelet adhesion and thrombus formation (DiOC6 images)” value with human platelets [1] is “higher binding to the CS-1 substratum relative to their non-activated counterparts”. For the same substance, in the assay on human platelets [2], the “flowed platelet binding (51Cr), both states of activation” value is “lack of significant upregulation in platelet binding”. In addition, the “HCAEC percent retention versus non-ECM-coated control substrate” value in the assay with HCAEC [3] (p<0.05) is on record as “statistically greater”. The “HCAEC percent retention versus fibronectin substrate” value in the assay with HCAEC [3] (p=0.9) was “not statistically different”. For the same substance, the “difference in HCAEC adhesion between IgG isotype control and alpha-4 integrin blocking antibody treated cells” value in the assay on HCAEC [4] was “A statistical difference was achieved”.
